According to publication PMC11363342 (ACS Central Science, 2024):

Test system: SARS-CoV-2 variants Alpha, Beta, Delta, Omicron BA.1, and XBB.1.5
Format: cell-based

`O=S1(=O)O[C@@H]2[C@H](O)[C@@H](O)[C@H](O)[C@@H](CO)[C@@H]2O1` [Compound 11, 1,6-epi-cyclophellitol cyclosulfate] was tested. Which “reduction in infectious virus titer, SARS-CoV-2 variants” value did it give?
The value was roughly 100 fold.
